Assay [1] concerns HCT116 cells, MKN45 cells. Put plainly: Test C: Measurement of cell proliferation by 14C-thymidine pulse. Format: cell-based. As to conditions: 14C-thymidine incorporation, 96 h of treatment; cell line not given. The procedure:
(§1) Stop the reaction with 100 μl of stop solution. Read without delay at […], 0.1 second on Wallac Victor plate reader. • C) Test C: Measurement of cell proliferation by ^14c-thymidine pulse
The cells are seeded into Cytostar 96-well plates in 180 μl for 4 hours at 37° C. and 5% CO2: HCT116 cells at a rate of 2500 cells per well in DMEM medium+10% foetal calf serum+1% L-glutamine and MKN45 cells at a rate of 7500 cells per well in RPMI medium+10% foetal calf serum+1% L-glutamine. After these 4 hours of incubation, the products are added in 10 μl as a 20-fold concentrated solution according to the dilution method mentioned for the ELISA. The products are tested at 10 concentrations in duplicate from 10 000 nM to 0.3 nM with an increment of 3.
After treatment for 72 h, add 10 μl of ^14C-thymidine at 10 μCi/ml to obtain 0.1 μCi per well. The ^14C-thymidine incorporation is measured on a Micro-Beta machine (Perkin-Elmer) after 24 hours of pulse and 96 h of treatment.
All the steps of the assay are automated on BIOMEK 2000 or TECAN stations.
For orientation: Uptake of a labelled nucleoside into DNA is a usual measure of proliferation.

Assay [2] concerns the target T1, MET (Homo sapiens, UniProt P08581). As to the kind of experiment: Test B: Inhibition of the autophosphorylation of MET; ELISA technique (pppY1230,1234,1235) in MKN45 cells. Format: cell-based. As to conditions: 1 h treatment, PhosphoMET ELISA. Also on record: Seed MKN45 cells into 96-well plates (Cell coat BD polylysine) at 20 000 cells/well; endogenous in cells; host or cells: MKN45 cells. The procedure: Leave to adhere for 24 hours in an incubator.
The cells are treated the day after seeding with the products at 6 concentrations in duplicate for 1 h. At least 3 control wells are treated with the same final amount of DMSO.
Product dilution: Stock at 10 mM in pure DMSO—range from 10 mM to 30 μM with an increment of 3 in pure DMSO—intermediate 1/50 dilutions in culture medium and then removal of 10 μl added directly to the cells (200 μl): final range of 10 000 to 30 nM.
At the end of the incubation, carefully remove the supernatant and rinse with 200 μl of PBS. Next, place 100 μl of lysis buffer directly in the wells on ice and incubate at 4° C. for 30 minutes. Lysis buffer: 10 mM Tris HCl, pH7.4, 100 mM NaCl, 1 mM EDTA, 1 mM EGTA, 1% Triton X-100, 10% glycerol, 0.1% SDS, 0.5% deoxycholate, 20 mM NaF, 2 mM Na3VO4, 1 mM PMSF and cocktail of antiproteases.
The 100 μl of lysates are transferred into a V-bottomed polypropylene plate and the ELISA is performed immediately, or the plate is frozen at −80° C. • b) PhosphoMET ELISA BioSource Kit KH00281
Into each well of the kit plate, add 70 μl of kit dilution buffer+30 μL of cell lysate or 30 μl of lysis buffer for the blanks. Incubate for 2 h with gentle agitation at ambient temperature.
Rinse the wells 4 times with 400 μl of kit washing buffer. Incubate with 100 μl of anti-phospho MET antibody for 1 hour at ambient temperature.
Rinse the wells 4 times with 400 μl of kit washing buffer. Incubate with 100 μl of anti-rabbit HRP antibody for 30 minutes at ambient temperature (except for the wells of chromogen alone).
Rinse the wells 4 times with 400 μl of kit washing buffer. Introduce 100 μL of chromogen and incubate for 30 minutes in the dark at ambient temperature.
as §1
A general note: In an ELISA, binding on a coated surface is turned into a signal by an enzyme label.
Target sequence in this assay (P08581 25-1390): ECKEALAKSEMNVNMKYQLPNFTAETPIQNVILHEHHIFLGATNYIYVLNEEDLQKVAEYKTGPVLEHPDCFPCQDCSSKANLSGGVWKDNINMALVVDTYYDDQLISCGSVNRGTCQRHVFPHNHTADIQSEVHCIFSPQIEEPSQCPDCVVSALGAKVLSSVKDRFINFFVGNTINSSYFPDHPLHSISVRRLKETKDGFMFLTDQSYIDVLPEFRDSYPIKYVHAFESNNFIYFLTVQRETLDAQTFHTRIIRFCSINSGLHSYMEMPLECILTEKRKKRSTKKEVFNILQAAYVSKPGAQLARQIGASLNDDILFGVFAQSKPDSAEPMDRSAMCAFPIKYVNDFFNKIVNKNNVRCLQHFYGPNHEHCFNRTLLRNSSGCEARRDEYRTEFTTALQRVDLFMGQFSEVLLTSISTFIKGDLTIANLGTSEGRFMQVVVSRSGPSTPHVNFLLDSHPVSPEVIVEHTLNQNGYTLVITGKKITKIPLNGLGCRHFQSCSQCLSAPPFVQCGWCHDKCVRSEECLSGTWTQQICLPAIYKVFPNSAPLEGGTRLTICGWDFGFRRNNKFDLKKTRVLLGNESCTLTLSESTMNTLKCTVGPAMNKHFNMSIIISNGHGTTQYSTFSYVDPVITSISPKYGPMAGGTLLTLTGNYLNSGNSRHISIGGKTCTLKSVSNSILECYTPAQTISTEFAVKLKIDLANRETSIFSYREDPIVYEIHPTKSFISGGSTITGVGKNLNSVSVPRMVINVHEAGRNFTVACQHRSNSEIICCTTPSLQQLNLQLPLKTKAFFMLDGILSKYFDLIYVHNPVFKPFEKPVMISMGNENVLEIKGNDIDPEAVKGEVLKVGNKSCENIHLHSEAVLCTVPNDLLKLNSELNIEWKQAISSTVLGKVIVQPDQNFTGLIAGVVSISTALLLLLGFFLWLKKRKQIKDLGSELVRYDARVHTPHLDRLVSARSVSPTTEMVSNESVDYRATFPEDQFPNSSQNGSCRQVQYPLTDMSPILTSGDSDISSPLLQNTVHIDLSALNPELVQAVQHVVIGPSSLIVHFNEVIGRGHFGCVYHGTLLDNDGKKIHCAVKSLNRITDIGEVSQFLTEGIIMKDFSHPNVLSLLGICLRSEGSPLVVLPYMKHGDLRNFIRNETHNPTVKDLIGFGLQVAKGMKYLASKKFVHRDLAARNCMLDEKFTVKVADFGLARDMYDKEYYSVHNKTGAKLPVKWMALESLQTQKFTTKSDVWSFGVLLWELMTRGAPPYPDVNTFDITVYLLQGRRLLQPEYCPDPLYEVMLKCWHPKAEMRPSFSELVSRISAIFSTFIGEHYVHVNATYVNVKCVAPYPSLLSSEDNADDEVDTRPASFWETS

Assay [3] has as its target T1, MET. Put plainly: Test A: HTRF MET assay in 96-well format. Format: biochemical. Also on record: The His-Tev-MET (956-1390) recombinant DNA in pFastBac (Invitrogen) is transfected into insect cells; His tag (N, cleaved yes); TEV cleavage site (N); made in house; host or cells: SF21 insect cells (baculovirus, pFastBac). To be noted: MET 5 nM, 10 μM ATP. The procedure: I) Expression and Purification of MET, Cytoplasmic Domain
The His-Tev-MET (956-1390) recombinant DNA in pFastBac (Invitrogen) is transfected into insect cells, and after several viral amplification steps, the final baculovirus stock is tested for the expression of the protein of interest.
After infection for 72 h at 27° C. with the recombinant virus, the SF21 cell cultures are harvested by centrifugation and the cell pellets are stored at −80° C.
The cell pellets are resuspended in lysis buffer (buffer A [50 mM HEPES, pH 7.5, 250 mM NaCl, 10% glycerol, 1 mM TECP]; +cocktail of protease inhibitors, Roche Diagnostics, without EDTA, ref 1873580), stirred at 4° C. until the mixture is homogeneous and then lyzed mechanically using a “Dounce” type apparatus.
After centrifugation, the lysis supernatant is incubated for 2 h at 4° C. with nickel chelate resin (His-Trap 6 Fast Flow™, GE HealthCare). After washing with 20 volumes of buffer A, the suspension is packed into a column, and the proteins are eluted with a gradient of buffer B ([…]+290 mM imidazole).
The fractions containing the protein of interest for the purpose of electrophoretic analysis (SDS PAGE) are combined, concentrated by ultrafiltration (10 kDa cut-off) and injected onto an exclusion chromatography column (Superdex™ 200, GE HealthCare) equilibrated in buffer A.
After enzymatic cleavage of the histidine tag, the protein is reinjected onto a new IMAC nickel chelate chromatography column (His-Trap 6 Fast Flow™, GE HealthCare) equilibrated in buffer A. The fractions eluted with a gradient of buffer B and containing the protein of interest after electrophoresis (SDS PAGE) are finally combined and conserved at −80° C.
For the production of autophosphorylated protein, the previous fractions are incubated for 1 h at ambient temperature after the addition of 2 mM ATP, 2 mM MgCl2, and 4 mM Na3VO4. After the reaction has been stopped with 5 mM of EDTA, the reaction mixture is injected onto a HiPrep desalifying column (GE HealthCare) preequilibrated in buffer A+4 mM Na3VO4, and the fractions containing the protein of interest (SDS PAGE analysis) are combined and stored at −80° C. The degree of phosphorylation is verified by mass spectrometry (LC-MS) and by peptide mapping.
• A) Test A: HTRF MET assay in 96-well format
MET at a final concentration of 5 nM is incubated in a final volume of 50 μl of enzymatic reaction in the presence of the test molecule (for a final concentration range of from 0.17 nM to 10 μM, 3% DMSO final concentration) in 10 mM MOPS buffer, pH 7.4, 1 mM DTT, 0.01% Tween 20. The reaction is initiated with the substrate solution to obtain final concentrations of 1 μg/ml poly-(GAT), 10 μM ATP and 5 mM MgCl2. After incubation for 10 min at ambient temperature, the reaction is stopped with a 30 μl mix so as to obtain a final solution of 50 mM Hepes pH 7.5, 500 mM potassium fluoride, 0.1% BSA and 133 mM EDTA in the presence of 80 ng of streptavidin 61SAXLB Cis-Bio Int. and 18 ng of anti-phosphotyrosine Mab PT66-Europium Cryptate per well. After incubation for 2 hours at ambient temperature, the reading is taken at 2 wavelengths, 620 nm and 665 nm, on a reader for the TRACE/HTRF technique and the % inhibition is calculated from the 665/620 ratios.
Target sequence in this assay (P08581 956-1390): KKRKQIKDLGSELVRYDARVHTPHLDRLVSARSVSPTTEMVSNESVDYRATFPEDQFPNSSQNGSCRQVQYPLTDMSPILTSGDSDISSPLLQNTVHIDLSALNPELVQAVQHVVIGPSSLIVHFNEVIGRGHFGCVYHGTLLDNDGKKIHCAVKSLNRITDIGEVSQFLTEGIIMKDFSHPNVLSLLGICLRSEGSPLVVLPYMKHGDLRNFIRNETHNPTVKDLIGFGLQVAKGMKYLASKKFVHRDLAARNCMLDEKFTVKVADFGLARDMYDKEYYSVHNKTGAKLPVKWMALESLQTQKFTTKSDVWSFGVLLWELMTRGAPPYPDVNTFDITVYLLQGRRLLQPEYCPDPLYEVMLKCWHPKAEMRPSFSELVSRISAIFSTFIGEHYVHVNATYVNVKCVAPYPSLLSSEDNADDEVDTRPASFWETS

This passage reports IC50 results from patent US9115134B2, “6-triazolopyridazine sulfanyl benzothiazole derivatives as MET inhibitors” (SANOFI, priority 2007, dated 2015).

SMILES strings stand for the structures.

The IC50 is the concentration at which inhibition is half-maximal. On to `CC(=O)Nc1nc2ccc(Sc3nnc4ccc(N5CCN(C)CC5)nn34)cc2s1` [Example 25, N-(6-{[6-(4-Methylpiperazin-1-yl)[1,2,4]triazolo[4,3-b]pyridazin-3-yl]sulphanyl}-1,3-benzothiazol-2-yl)acetamide], for which the IC50 was < 1000 nM in assay [1], 100 to 500 nM against MET [2] and < 100 nM on MET [3].
Turning to `COCCNc1nc2ccc(Sc3nnc4ccc(-c5ccc(F)cc5)nn34)cc2s1` [Example 26, 6-{[6-(4-Fluorophenyl)[1,2,4]triazolo[4,3-b]pyridazin-3-yl]sulphanyl}-N-(2-methoxyethyl)-1,3-benzothiazol-2-amine], the IC50 in assay [1] was < 1000 nM; on MET [2], < 100 nM; at MET [3] it was < 100 nM.
With `COCCNc1ccc2nnc(Sc3ccc4nc(NC(C)=O)sc4c3)n2n1` [Example 27, N-[6-({6-[(2-Methoxyethyl)amino][1,2,4]triazolo[4,3-b]pyridazin-3-yl}sulphanyl)-1,3-benzothiazol-2-yl]acetamide], the figures for the IC50 (in assay [1]; against MET [2]; on MET [3]) were < 1000 nM, < 100 nM and < 100 nM, respectively.
On to `O=C(NCCN1CCOCC1)Nc1nc2ccc(Sc3nnc4ccc(N5CCOCC5)nn34)cc2s1` [Example 28, 1-[2-(Morpholin-4-yl)ethyl]-3-(6-{[6-(morpholin-4-yl)[1,2,4]triazolo[4,3-b]-pyridazin-3-yl]sulphanyl}-1,3-benzothiazol-2-yl)urea], for which the concentration for half-maximal inhibition (IC50) in assay [1] was < 1000 nM; against MET [2], < 100 nM; at MET [3], < 100 nM.
In the case of `Nc1ccc2nnc(Sc3ccc4nc(NC(=O)NCCN5CCOCC5)sc4c3)n2n1` [Example 29, 1-{6-[(6-Amino[1,2,4]triazolo[4,3-b]pyridazin-3-yl)sulphanyl]-1,3-benzothiazol-2-yl}-3-[2-(morpholin-4-yl)ethyl]urea], the values for the IC50 (in assay [1]; on MET [2]; at MET [3]) were < 1000 nM, 100 to 500 nM and < 100 nM, respectively.
The matching figures for `Fc1ccc(-c2ccc3nnc(Sc4ccc5nc(NCCN6CCOCC6)sc5c4)n3n2)cc1` [Example 30, 6-{[6-(4-Fluorophenyl)[1,2,4]triazolo[4,3-b]pyridazin-3-yl]sulphanyl}-N-[2-(morpholin-4-yl)ethyl]-1,3-benzothiazol-2-amine]: < 1000 nM, < 100 nM and < 100 nM.
As to `CC(=O)Nc1ccc2nnc(Sc3ccc4nc(NC(=O)NCCN5CCOCC5)sc4c3)n2n1` [Example 31, N-(3-{[2-({[2-(Morpholin-4-yl)ethyl]carbamoyl}amino)-1,3-benzothiazol-6-yl]sulphanyl}[1,2,4]triazolo[4,3-b]pyridazin-6-yl)acetamide], the figures for the IC50 (in assay [1]; against MET [2]; at MET [3]) were < 1000 nM, 100 to 500 nM and < 100 nM, respectively.
For `CC(C)(C)C(=O)Nc1ccc2nnc(Sc3ccc4nc(NC(=O)NCCN5CCOCC5)sc4c3)n2n1` [Example 32, 2,2-Dimethyl-N-(3-{[2-({[2-(morpholin-4-yl)ethyl]carbamoyl}amino)-1,3-benzothiazol-6-yl]sulphanyl}[1,2,4]triazolo[4,3-b]pyridazin-6-yl)propanamide], in that order: < 1000 nM, < 100 nM and < 100 nM.
Take `O=C(Nc1nc2ccc(Sc3nnc4ccc(-c5ccc(F)cc5)nn34)cc2s1)Oc1ccccc1` [Example 33, Phenyl (6-{[6-(4-fluorophenyl)[1,2,4]triazolo[4,3-b]pyridazin-3-yl]sulphanyl}-1,3-benzothiazol-2-yl)carbamate]: the IC50 was < 1000 nM in assay [1], < 100 nM against MET [2] and < 500 nM at MET [3].
As for `O=C(NCCN1CCOCC1)Nc1nc2ccc(Sc3nnc4ccc(OCC5CCO5)nn34)cc2s1` (stereo not drawn) [Example 34, 1-[2-(Morpholin-4-yl)ethyl]-3-(6-{[6-(oxetan-2-ylmethoxy)[1,2,4]triazolo[4,3-b]pyridazin-3-yl]sulphanyl}-1,3-benzothiazol-2-yl)urea], the IC50 in assay [1] was < 10000 nM; against MET [2] it was < 100 nM; on MET [3], < 100 nM.
Take `O=C(Nc1nc2ccc(Sc3nnc4ccc(-c5ccc(F)cc5)nn34)cc2s1)OCC1CCO1` (stereo not drawn) [Example 35, Oxetan-2-ylmethyl (6-{[6-(4-fluorophenyl)[1,2,4]triazolo[4,3-b]pyridazin-3-yl]sulphanyl}-1,3-benzothiazol-2-yl)carbamate]: the IC50 was < 1000 nM in assay [1], < 100 nM on MET [2] and < 100 nM on MET [3].
For the compound `COc1ccc2nnc(Sc3ccc4nc(NC(=O)C5CC5)sc4c3)n2n1` [Example 36, N-{6-[(6-Methoxy[1,2,4]triazolo[4,3-b]pyridazin-3-yl)sulphanyl]-1,3-benzothiazol-2-yl}cyclopropanecarboxamide], the IC50 in assay [1] is < 1000 nM; on MET [2], < 100 nM; on MET [3], < 100 nM.
